*1 amine or outer side, *2 acyl side, *3 side chain or, on linkers, in order; H or OH if unused. Where a SMILES comes first, the peptide text is derived from it. The star is where a group is joined. AMC = Cc1cc(=O)oc2cc(N*)ccc12; Suc = O=C(CCC(=O)[*:2])[*:1] A value given as a limit tells only on which side of the number the result lay.

Results on two molecules are retold here after publication PMC6773864, “The functional ClpXP protease of Chlamydia trachomatis requires distinct clpP genes from separate genetic loci” (Scientific Reports, 2019).

For test [1], the target named is T1, ctClpP1P2 (Chlamydia trachomatis, UniProt O84712+P38002).
T1 construct: gene clpP1; full-length, C-terminal Strep-tag on both (kept), expressed in E. coli dAPX-1 (clpP/clpX/clpA deleted), mixed 1:1; hetero-tetradecamer
T1 sequence (P38002 2-192): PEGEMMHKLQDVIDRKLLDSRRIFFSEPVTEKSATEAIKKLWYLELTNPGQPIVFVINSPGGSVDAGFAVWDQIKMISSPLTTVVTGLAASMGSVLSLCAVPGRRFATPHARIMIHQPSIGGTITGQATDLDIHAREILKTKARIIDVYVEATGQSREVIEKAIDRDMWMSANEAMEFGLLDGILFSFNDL
T1 sequence (O84712 whole entry): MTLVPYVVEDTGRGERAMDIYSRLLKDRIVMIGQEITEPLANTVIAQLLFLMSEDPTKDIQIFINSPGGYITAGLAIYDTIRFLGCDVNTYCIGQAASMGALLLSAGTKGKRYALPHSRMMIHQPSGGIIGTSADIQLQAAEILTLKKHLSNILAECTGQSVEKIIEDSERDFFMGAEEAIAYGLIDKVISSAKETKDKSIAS
The test can be described thus: peptidase assay, fluorescence (AMC release). The test is classed as biochemical. The note with it: 100 µM substrate, 3 µM ClpP, no ADEP1, pH 7.6, 32 °C.

In test [2] the target is T1, ctClpP1P2. The test can be described thus: Suc-LY-AMC peptidase assay, fluorescence (AMC release). The test is classed as biochemical. The conditions noted are these: activator; 15 µM ADEP1, 3 µM ClpP, 100 µM Suc-LY-AMC, no ClpX, pH 7.6, 32 °C; binds preferably via ClpP2 hydrophobic pocket.

Take `Cc1cc(=O)oc2cc(NC(=O)[C@H](Cc3ccc(O)cc3)NC(=O)[C@H](CC(C)C)NC(=O)CCC(=O)O)ccc12` [Suc-LY-AMC] (Suc-Leu-Tyr-{AMC}): at ctClpP1P2 [1], the “peptidase assay, fluorescence (AMC release)” value was “when combined, ctClpP1P2 steadily hydrolysed Suc-LY-AMC”.
Consider ADEP1, for which, on ctClpP1P2 [2], the “fold increase in peptidase activity at 15 μM” value is recorded as > 2.5 fold.
